In general, IC50 refers to the point on the concentration scale where inhibition reaches its midpoint.

In one test the target is Erk1 (Homo sapiens (Human), UniProt P27361). In words: Protein Mass Modification Assay (intact protein MALDI). It is filed as binding. The method, boiled down: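 Human Erk1 was incubated 60 min at room temperature with a 10-fold molar excess of compound, then analysed as intact protein by MALDI with sinapinic acid matrix. The centroid mass shift versus untreated protein was divided by compound molecular weight to give percent modified protein.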

The next test deals with MEK1 activated ERK1 (Homo sapiens (Human), UniProt P27361). Briefly: Omnia continuous-read kinase assay for potency against MEK1 activated ERK1. It is filed as biochemical. The settings on record: MEK1 activated ERK1, WT, ATP at KM. The method, boiled down:
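Apparent IC50 came from initial reaction slopes (RFU vs time) plotted against log inhibitor with a variable-slope fit. Reactions were started with ERK1 (4 nM final) added to 50 μM ATP, roughly at its appKM, and 10 μM Sox-conjugated ST17 peptide in 20 mM Tris pH 7.5, 5 mM MgCl2. Fluorescence was monitored every 71 seconds.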

Sequence of MEK1 activated ERK1 (P27361 whole entry): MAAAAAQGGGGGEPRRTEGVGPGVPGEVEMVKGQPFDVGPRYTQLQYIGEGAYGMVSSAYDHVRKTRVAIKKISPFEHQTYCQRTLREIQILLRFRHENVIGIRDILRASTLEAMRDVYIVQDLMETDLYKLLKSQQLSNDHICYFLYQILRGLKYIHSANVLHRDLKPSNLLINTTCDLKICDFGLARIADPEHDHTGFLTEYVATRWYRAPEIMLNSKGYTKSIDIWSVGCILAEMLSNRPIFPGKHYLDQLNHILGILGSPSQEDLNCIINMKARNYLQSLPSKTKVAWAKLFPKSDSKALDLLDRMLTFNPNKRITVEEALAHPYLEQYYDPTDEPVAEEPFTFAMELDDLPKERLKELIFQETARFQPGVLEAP
Sequence of Erk1 (P27361 whole entry, looked up): as the sequence (P27361 whole entry) above

On to `C=C(C)S(=O)(=O)Nc1cc(C)ccc1Nc1nc(Nc2cc(C(C)=O)ccc2C)ncc1C(F)(F)F` [Compound I-98, N-(2-((2-((5-acetyl-2-methylphenyl)amino)-5-(trifluoromethyl)pyrimidin-4-yl)amino)-5-methylphenyl)prop-1-ene-2-sulfonamide], for which the “ERK1 Mass Mod (%)” value at Erk1 is reported as “E (provided a mass modification of ≧70%)”. Further, the IC50 at MEK1 activated ERK1 was less than 100 nM.
The corresponding values for `C=CC(=O)Nc1ccccc1Nc1nc(Nc2ccc(N(CCNC(=O)OC(C)(C)C)C(C)=O)cc2C(F)(F)F)ncc1Cl` [Compound I-170, tert-butyl (2-(N-(4-((4-((2-acrylamidophenyl)amino)-5-chloropyrimidin-2-yl)amino)-3-(trifluoromethyl)phenyl)acetamido)ethyl)carbamate] are “E (provided a mass modification of ≧70%)” and more than 1000 nM.
As to `C=CC(=O)Nc1ccccc1Nc1nc(Nc2ccc(N3CCC[C@H]3CO)cc2C#N)ncc1Cl` [Compound I-172, (S)—N-(2-((5-chloro-2-((2-cyano-4-(2-(hydroxymethyl)pyrrolidin-1-yl)phenyl)amino)pyrimidin-4-yl)amino)phenyl)acrylamide], the “ERK1 Mass Mod (%)” value on Erk1 is “F (provided a mass modification of 31-69%)”. Further, the IC50 on MEK1 activated ERK1 is more than 1000 nM.
Turning to `C=CC(=O)Nc1cccc(Nc2nc(Nc3ccc(N4CCN(C(C)=O)CC4)cc3OC)ncc2Cl)c1` [Compound I-298, N-(3-((2-((4-(4-acetylpiperazin-1-yl)-2-methoxyphenyl)amino)-5-chloropyrimidin-4-yl)amino)phenyl)acrylamide], the “ERK1 Mass Mod (%)” value on Erk1 was “G (proived a mass modification ≦30%)”. For the same molecule, on MEK1 activated ERK1, the IC50 is more than 1000 nM.
The corresponding values for `C=CC(=O)Nc1cc(C)ccc1Nc1nc(Nc2cc(O)ncc2C)ncc1C(F)(F)F` [Compound I-365, N-(2-((2-((2-hydroxy-5-methylpyridin-4-yl)amino)-5-(trifluoromethyl)pyrimidin-4-yl)amino)-5-methylphenyl)acrylamide] are “E (provided a mass modification of ≧70%)” and more than 1000 nM.
The corresponding values for `C=CC(=O)Nc1cc(OC)ccc1Nc1nc(Nc2ccc(N3CCNCC3)cc2C#N)ncc1Cl` [Compound I-161, N-(2-((5-chloro-2-((2-cyano-4-(piperazin-1-yl)phenyl)amino)pyrimidin-4-yl)amino)-5-methoxyphenyl)acrylamide] are “G (proived a mass modification ≦30%)” and more than 1000 nM.
The corresponding values for `C=CC(=O)Nc1ccccc1Oc1nc(Nc2ccc(N3CCN(C(C)=O)CC3)cc2OC)ncc1C(N)=O` [Compound I-258, 2-((4-(4-acetylpiperazin-1-yl)-2-methoxyphenyl)amino)-4-(2-acrylamidophenoxy)pyrimidine-5-carboxamide] are “E (provided a mass modification of ≧70%)” and less than 100 nM.
As for `CC(C)=CC(=O)c1ccccc1Oc1nc(Nc2cc(C(N)=O)ccc2C)ncc1Cl` [Compound I-223, 3-((5-chloro-4-(2-(3-methylbut-2-enoyl)phenoxy)pyrimidin-2-yl)amino)-4-methylbenzamide], the “ERK1 Mass Mod (%)” value on Erk1 is “E (provided a mass modification of ≧70%)”. The IC50 on MEK1 activated ERK1 is more than 1000 nM.
Turning to `C=C(C)S(=O)(=O)Nc1cc(F)ccc1Nc1nc(N[C@H]2CCCN(C(=O)CO)C2)ncc1C(F)(F)F` [Compound I-54, (S)—N-(5-Fluoro-2-((2-((1-(2-hydroxyacetyl)piperidin-3-yl)amino)-5-(trifluoromethyl)pyrimidin-4-yl)amino)phenyl)prop-1-ene-2-sulfonamide], at Erk1, the “ERK1 Mass Mod (%)” value was “G (proived a mass modification ≦30%)”. The IC50 at MEK1 activated ERK1 is less than 100 nM.
Taken in the same sequence, the figures for `C=CC(=O)Nc1cc(OC)ccc1Nc1nc(Nc2cc(OC)nc(N3CCN(C(C)=O)CC3)c2)ncc1C(F)(F)F` [Compound I-91, N-(2-((2-((2-(4-Acetylpiperazin-1-yl)-6-methoxypyridin-4-yl)amino)-5-(trifluoromethyl)pyrimidin-4-yl)amino)-5-methoxyphenyl)acrylamide] were “E (provided a mass modification of ≧70%)” and less than 100 nM.
Taken in the same sequence, the figures for `C=CC(=O)Nc1cc(C)ccc1Nc1nc(Nc2cc(OC)nc(N3CCN(C(C)=O)CC3)c2)ncc1Cl` [Compound I-296, N-(2-((2-((2-(4-acetylpiperazin-1-yl)-6-methoxypyridin-4-yl)amino)-5-chloropyrimidin-4-yl)amino)-5-methylphenyl)acrylamide] were “E (provided a mass modification of ≧70%)” and less than 100 nM.
Regarding `C=CC(=O)Nc1cc(C)ccc1Nc1nc(Nc2cc(OC)nc(N3CC(O)C3)c2)ncc1C(F)(F)F` [Compound I-328, N-(2-((2-((2-(3-hydroxyazetidin-1-yl)-6-methoxypyridin-4-yl)amino)-5-(trifluoromethyl)pyrimidin-4-yl)amino)-5-methylphenyl)acrylamide], the “ERK1 Mass Mod (%)” value at Erk1 is given as “E (provided a mass modification of ≧70%)”. In addition, the IC50 on MEK1 activated ERK1 is less than 100 nM.
With `C=CC(=O)Nc1ccccc1Nc1nc(N[C@H]2CCCN(C(=O)CO)C2)ncc1Cl` [Compound I-123, (S)—N-(2-((5-chloro-2-((1-(2-hydroxyacetyl)piperidin-3-yl)amino)pyrimidin-4-yl)amino)phenyl)acrylamide], the “ERK1 Mass Mod (%)” value at Erk1 is reported as “E (provided a mass modification of ≧70%)”. In addition, the IC50 at MEK1 activated ERK1 is less than 100 nM.
Consider `C=CC(=O)Nc1cc(OC)ccc1Nc1nc(Nc2ccc(N3CCC[C@H]3CO)cc2C(F)(F)F)ncc1Cl` [Compound I-158, (S)—N-(2-((5-chloro-2-((4-(2-(hydroxymethyl)pyrrolidin-1-yl)-2-(trifluoromethyl)phenyl)amino)pyrimidin-4-yl)amino)-5-methoxyphenyl)acrylamide], for which, at Erk1, the “ERK1 Mass Mod (%)” value is recorded as “F (provided a mass modification of 31-69%)”. Moreover, at MEK1 activated ERK1, the IC50 was more than 1000 nM.
On to `C=CC(=O)N(C)c1ccccc1Nc1nc(Nc2cc(C(=O)NOC)ccc2C#N)ncc1Cl` [Compound I-197, 3-((5-chloro-4-((2-(N-methylacrylamido)phenyl)amino)pyrimidin-2-yl)amino)-4-cyano-N-methoxybenzamide], for which the “ERK1 Mass Mod (%)” value at Erk1 was “E (provided a mass modification of ≧70%)”. Moreover, the IC50 on MEK1 activated ERK1 was more than 1000 nM.
Taken in the same sequence, the figures for `C=CC(=O)Nc1ccccc1Nc1nc(Nc2ccnc(NC)c2)ncc1C(F)(F)F` [Compound I-321, N-(2-((2-((2-(methylamino)pyridin-4-yl)amino)-5-(trifluoromethyl)pyrimidin-4-yl)amino)phenyl)acrylamide] were “E (provided a mass modification of ≧70%)” and more than 1000 nM.
Take `C=CC(=O)Nc1ccccc1Nc1nc(Nc2ccc(NC(C)=O)cc2C(F)(F)F)ncc1Cl` [Compound I-150, N-(2-((2-((4-acetamido-2-(trifluoromethyl)phenyl)amino)-5-chloropyrimidin-4-yl)amino)phenyl)acrylamide]: the “ERK1 Mass Mod (%)” value on Erk1 is “E (provided a mass modification of ≧70%)”. Besides, the IC50 at MEK1 activated ERK1 was more than 1000 nM.
Consider `C=CC(=O)Nc1cc(OC)ccc1Nc1nc(Nc2cc(OC)nc(N3CCN(C(C)=O)CC3)c2)ncc1Cl` [Compound I-297, N-(2-((2-((2-(4-acetylpiperazin-1-yl)-6-methoxypyridin-4-yl)amino)-5-chloropyrimidin-4-yl)amino)-5-methoxyphenyl)acrylamide], for which the “ERK1 Mass Mod (%)” value at Erk1 was “E (provided a mass modification of ≧70%)”. Besides, the IC50 at MEK1 activated ERK1 is less than 100 nM.
The corresponding values for `C=CC(=O)Nc1cc(OC)ccc1Nc1nc(Nc2cc(C(N)=O)ccc2C)ncc1Cl` [Compound I-237, 3-((4-((2-acrylamido-4-methoxyphenyl)amino)-5-chloropyrimidin-2-yl)amino)-4-methylbenzamide] are “E (provided a mass modification of ≧70%)” and less than 100 nM.
The corresponding values for `C=CC(=O)Nc1ccccc1Nc1nc(Nc2cc(C(N)=O)ccc2C#N)ncc1Cl` [Compound I-192, 3-((4-((2-acrylamidophenyl)amino)-5-chloropyrimidin-2-yl)amino)-4-cyanobenzamide] are “E (provided a mass modification of ≧70%)” and less than 100 nM.
For the molecule `C=CC(=O)Nc1cc(F)ccc1Nc1nc(Nc2cc(C(N)=O)ccc2OC)ncc1Cl` [Compound I-208, 3-((4-((2-acrylamido-4-fluorophenyl)amino)-5-chloropyrimidin-2-yl)amino)-4-methoxybenzamide], the “ERK1 Mass Mod (%)” value at Erk1 is recorded as “E (provided a mass modification of ≧70%)”. Also, the IC50 at MEK1 activated ERK1 is less than 100 nM.
Take `C=CC(=O)Nc1ccccc1CNc1nc(N[C@H]2CCCN(C(=O)CO)C2)ncc1C(F)(F)F` [Compound I-45, (S)—N-(2-(((2-((1-(2-Hydroxyacetyl)piperidin-3-yl)amino)-5-(trifluoromethyl)pyrimidin-4-yl)amino)methyl)phenyl)acrylamide]: the “ERK1 Mass Mod (%)” value at Erk1 is “G (proived a mass modification ≦30%)”. Also, the half-maximal inhibitory concentration (IC50) on MEK1 activated ERK1 was more than 1000 nM.
The corresponding values for `C=CC(=O)Nc1ccccc1Oc1ccnc(Nc2ccc(N3CCN(C(C)=O)CC3)cc2OC)n1` [Compound I-261, N-(2-((2-((4-(4-acetylpiperazin-1-yl)-2-methoxyphenyl)amino)pyrimidin-4-yl)oxy)phenyl)acrylamide] are “G (proived a mass modification ≦30%)” and more than 1000 nM.
Taken in the same sequence, the figures for `C=CC(=O)Nc1ccc(C)cc1Nc1nc(N[C@H]2CCCN(C(=O)CO)C2)ncc1C(F)(F)F` [Compound I-37, (S)—N-(2-((2-((1-(2-hydroxyacetyl)piperidin-3-yl)amino)-5-(trifluoromethyl)pyrimidin-4-yl)amino)-4-methylphenyl)acrylamide] were “E (provided a mass modification of ≧70%)” and less than 100 nM.

Source of the values: patent US9796700B2 (Celgene CAR LLC, priority 2013, dated 2017).
